According to PMC3316155 (2012):
Values belong to the molecule of their own block, whether it stands above or below them.

What was measured:
Assay type in all cases: biochemical
[1] = target: T1, PARP-1 [poly(ADP-ribose) polymerase 1] (Homo sapiens, UniProt P09874); experiment: […]NAD+ automodification assay, single concentration of […]
[2] = target: T1, PARP-1 [poly(ADP-ribose) polymerase 1]; experiment: […]NAD+ automodification assay, % inhibition at […]; conditions: read-out: % reduction at 1 mM
[3] = target: T1, PARP-1 [poly(ADP-ribose) polymerase 1]; experiment: Michaelis–Menten kinetics of ADP-ribose incorporation
[4] = target: T1, PARP-1 [poly(ADP-ribose) polymerase 1]; experiment: […]NAD+ automodification assay with purified PARP-1

T1 sequence (P09874 2-1014): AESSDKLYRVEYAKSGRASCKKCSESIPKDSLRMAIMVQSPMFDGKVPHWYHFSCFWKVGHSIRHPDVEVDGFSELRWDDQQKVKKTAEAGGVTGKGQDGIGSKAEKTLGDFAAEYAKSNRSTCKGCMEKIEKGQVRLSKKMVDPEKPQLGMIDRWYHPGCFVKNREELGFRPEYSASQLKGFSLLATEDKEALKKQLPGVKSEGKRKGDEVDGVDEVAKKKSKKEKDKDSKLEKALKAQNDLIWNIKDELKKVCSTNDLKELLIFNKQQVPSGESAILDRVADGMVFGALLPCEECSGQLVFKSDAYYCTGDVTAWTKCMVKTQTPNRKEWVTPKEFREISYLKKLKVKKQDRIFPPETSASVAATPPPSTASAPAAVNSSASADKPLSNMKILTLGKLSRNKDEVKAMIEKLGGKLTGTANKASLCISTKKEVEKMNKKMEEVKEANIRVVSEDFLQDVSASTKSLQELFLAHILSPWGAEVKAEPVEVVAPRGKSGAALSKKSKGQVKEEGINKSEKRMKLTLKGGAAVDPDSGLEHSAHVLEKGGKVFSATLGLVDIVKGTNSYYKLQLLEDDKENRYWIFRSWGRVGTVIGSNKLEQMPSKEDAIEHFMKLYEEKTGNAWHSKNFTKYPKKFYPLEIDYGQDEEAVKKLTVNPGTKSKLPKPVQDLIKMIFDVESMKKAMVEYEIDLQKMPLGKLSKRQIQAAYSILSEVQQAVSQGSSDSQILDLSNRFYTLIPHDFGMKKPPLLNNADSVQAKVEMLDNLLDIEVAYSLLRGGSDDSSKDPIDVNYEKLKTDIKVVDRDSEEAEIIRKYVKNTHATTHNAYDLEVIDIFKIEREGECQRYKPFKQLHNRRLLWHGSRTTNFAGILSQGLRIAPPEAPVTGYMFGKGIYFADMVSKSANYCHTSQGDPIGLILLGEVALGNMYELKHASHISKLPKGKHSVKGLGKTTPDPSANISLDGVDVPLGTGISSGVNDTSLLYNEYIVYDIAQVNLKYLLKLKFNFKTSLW

SMILES: Nc1ncnc2c1ncn2[C@@H]1O[C@H](COP(=O)(O)OP(=O)(O)OC[C@H]2OC(O)[C@H](O)[C@@H]2O)[C@@H](O)[C@H]1O (stereo partly shown) [ADP-ribose]
[32P]NAD+ automodification assay, single concentration of 50 μM [1]: With the exception of ADP-ribose, other adenine derivatives only inhibited PARP-1 to a limited extent

inhibition at 1000 µM [2]: ~25%
SMILES: Nc1ncnc2c1ncn2[C@@H]1O[C@H](COP(=O)(O)OP(=O)(O)OP(=O)(O)O)[C@@H](O)[C@H]1O [ATP]

Km [3]: 200 to 250 µM
SMILES: NC(=O)c1ccc[n+]([C@@H]2O[C@H](COP(=O)([O-])OP(=O)(O)OC[C@H]3O[C@@H](n4cnc5c(N)ncnc54)[C@H](O)[C@@H]3O)[C@@H](O)[C@H]2O)c1 [NAD^+]

Ki [4]: 500 to 1000 nM
SMILES: Nc1ncnc2c1ncn2[C@@H]1O[C@H](COP(=O)(O)O)[C@@H](OP(=O)(O)O)[C@H]1O [pAp]
